Data as given in PubChem BioAssay (NCI).
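48-hour exposure; five concentrations; linearly interpolated endpoints. Abbreviation: GI50, concentration required for 50% inhibition of growth. TGI: total growth inhibition.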

How the values were obtained:
Experiment in all cases: NCI tumour cell line growth inhibition, 48 h
COLO 205 colon = test system: COLO 205 colon
K-562 leukemia = test system: K-562 leukemia
MDA-MB-435 = test system: MDA-MB-435
NCI-H23 lung = test system: NCI-H23 lung
SF-295 CNS = test system: SF-295 CNS
SF-539 CNS = test system: SF-539 CNS
SNB-75 CNS = test system: SNB-75 CNS
SW-620 colon = test system: SW-620 colon
UACC-62 melanoma = test system: UACC-62 melanoma
RPMI-8226 leukemia = test system: RPMI-8226 leukemia

SMILES	GI50 (COLO 205 colon)	TGI (COLO 205 colon)	GI50 (K-562 leukemia)	TGI (K-562 leukemia)	GI50 (MDA-MB-435)	TGI (MDA-MB-435)	GI50 (NCI-H23 lung)	TGI (NCI-H23 lung)	GI50 (SF-295 CNS)	TGI (SF-295 CNS)	GI50 (SF-539 CNS)	TGI (SF-539 CNS)	GI50 (SNB-75 CNS)	TGI (SNB-75 CNS)	GI50 (SW-620 colon)	TGI (SW-620 colon)	GI50 (UACC-62 melanoma)	TGI (UACC-62 melanoma)	TGI (RPMI-8226 leukemia)	GI50 (RPMI-8226 leukemia)
COc1ccc2c(c1)CCc1[nH]nc(-c3cc(OC)c(OC)c(OC)c3)c1-2	< 0.01 µM	< 0.01 µM	< 0.01 µM	> 100 µM	< 0.01 µM	< 0.01 µM	< 0.01 µM	3.53 µM	< 0.01 µM	3.22 µM	< 0.01 µM	< 0.01 µM	< 0.01 µM	26.1 µM	< 0.01 µM	14.5 µM	< 0.01 µM	13 µM		
CCOc1ccccc1N1C(=O)C(=O)C(c2nc3ccccc3o2)/C(=N\N)C1=O (stereo unspecified)		> 100 µM		> 100 µM				> 100 µM		> 100 µM		> 100 µM		> 100 µM		> 100 µM		> 100 µM	> 100 µM	
CC1=C(C(=O)Nc2ccc([N+](=O)[O-])cc2)C(c2ccccc2O)C(C(=O)Nc2ccc([N+](=O)[O-])cc2)=C(C)N1		40.8 µM		74.2 µM				66.7 µM		72.2 µM		57.8 µM		89 µM		94.1 µM			53.4 µM	
O=C1C(Cl)=C(Nc2cccc(O)c2)C(=O)N1Cc1ccc(Cl)cc1	3.38 µM	20.8 µM	1.36 µM	4.52 µM	1.22 µM	10.1 µM	2.17 µM	8.31 µM	2.68 µM	18.5 µM	2.63 µM	16.6 µM			2.56 µM	24.8 µM	1.27 µM	4.79 µM	> 100 µM	1.07 µM
Nc1nc(NC2C=C(CO)C(O)C2O)c([N+](=O)[O-])c(=O)[nH]1 (stereo unspecified)		> 100 µM		> 100 µM				> 100 µM		> 100 µM		> 100 µM		> 100 µM		> 100 µM		> 100 µM		
COc1ccc(OC)c(NCC#N)c1		> 100 µM		> 100 µM				> 100 µM		> 100 µM		> 100 µM		> 100 µM		> 100 µM		> 100 µM	> 100 µM	
COC1=C2C[C@H](O)C(C)C[C@@]2(OC)OC1=O (stereo partly specified)		> 100 µM		> 100 µM				> 100 µM		> 100 µM		> 100 µM		> 100 µM		> 100 µM		> 100 µM	> 100 µM	
NC(CC(=O)Nc1ccc(Cl)cc1)=Nc1ccccc1		> 100 µM		> 100 µM				> 100 µM		> 100 µM		> 100 µM		> 100 µM		> 100 µM		> 100 µM		
CCO/C=C1\N=C(C(Cl)c2ccccc2)OC1=O (stereo unspecified)		> 100 µM		> 100 µM				> 100 µM		> 100 µM		> 100 µM		> 100 µM		> 100 µM		> 100 µM	> 100 µM	
Cc1ccc(C(=O)N2CCN(C(=O)c3ccc(C)cc3)c3ccccc32)cc1		32.2 µM		> 100 µM				> 100 µM		> 43.1 µM		11.9 µM		> 100 µM		> 100 µM		> 100 µM	> 58.2 µM	
COc1cc([C@H]2c3cc4c(cc3[C@H](NCc3ccc([N+](=O)[O-])cc3)C3COC(=O)[C@H]32)OCO4)cc(OC)c1O (stereo partly specified)		> 43.9 µM		> 100 µM				1.91 µM		5.14 µM		2.95 µM		6.6 µM		> 38.3 µM		12.1 µM	> 25.6 µM	
CCOC(=O)[C@H]1CSC[C@@H](C(=O)OC)N1		> 100 µM		> 100 µM				> 100 µM		> 100 µM				> 100 µM		> 100 µM		> 100 µM	> 100 µM	
CCCOC(=O)N[C@H]1CCc2cc(OC)c(OC)c(OC)c2-c2ccc(SC)c(=O)cc21	< 0.01 µM	0.0108 µM	< 0.01 µM	24.1 µM			< 0.01 µM	> 100 µM	< 0.01 µM	6.77 µM	< 0.01 µM	0.173 µM	< 0.01 µM	> 100 µM	< 0.01 µM	21.5 µM	< 0.01 µM	> 61.2 µM	8.22 µM	< 0.01 µM
CC(C)(c1ccc(Oc2ccc(C#N)c(C#N)c2)cc1)c1ccc(Oc2ccc(C#N)c(C#N)c2)cc1	> 100 µM	> 100 µM	> 100 µM	> 100 µM			> 100 µM	> 100 µM	> 100 µM	> 100 µM	> 100 µM	> 100 µM		89.2 µM		> 100 µM	> 100 µM	> 100 µM	> 100 µM	> 100 µM
NC(=O)C(=Cc1ccc(CP(=O)(O)O)cc1)C(N)=O		> 100 µM		> 100 µM				> 100 µM		> 100 µM		> 100 µM		> 100 µM		> 100 µM		> 100 µM	> 100 µM	
O=c1nc(NC(c2ccccc2)(c2ccccc2)c2ccccc2)ccn1CCO		> 100 µM		> 100 µM				> 100 µM		> 100 µM		> 100 µM		> 100 µM		> 100 µM			> 100 µM	
COc1cc(C=O)c(-c2cc3c(cc2C2(C)OCCS2)OCO3)c(OC)c1OC (stereo unspecified)		16.1 µM		> 239 µM				92.9 µM		48 µM		17.4 µM		21.3 µM		39.6 µM		61.4 µM	> 160 µM	
C[C@]1(C(=O)O)N[C@H](C(=O)O)CS1	> 1000 µM	> 1000 µM	2.34 µM	> 1000 µM	> 1000 µM	> 1000 µM	> 1000 µM	> 1000 µM	933 µM	> 1000 µM			> 1000 µM	> 1000 µM	> 1000 µM	> 1000 µM	> 1000 µM	> 1000 µM	> 1000 µM	> 1000 µM
COC(=O)c1ccc(NC(=O)c2cc(OC)c(OC)c(OC)c2)cc1				12 µM						> 100 µM		5.5 µM		> 100 µM		> 100 µM		> 100 µM		
